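Five compound concentrations were applied to cells in 96-well plates for 48 hours; endpoints were derived by simple linear interpolation of the resulting dose-response curve. The concentration for 50% growth inhibition is given as GI50. TGI marks complete inhibition of growth.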
Assays:
Assay in all cases: growth of human tumour cells (NCI), 48 h
HCC-2998 colon = test system: HCC-2998 colon
SW-620 colon = test system: SW-620 colon
SK-MEL-28 melanoma = test system: SK-MEL-28 melanoma
HL-60(TB) leukemia = test system: HL-60(TB) leukemia
SF-539 CNS = test system: SF-539 CNS
COLO 205 colon = test system: COLO 205 colon
HT29 colon = test system: HT29 colon
NCI-H226 lung = test system: NCI-H226 lung
K-562 leukemia = test system: K-562 leukemia
NCI/ADR-RES ovarian = test system: NCI/ADR-RES ovarian

Structure (SMILES)	GI50 (HCC-2998 colon) [µM]	TGI (HCC-2998 colon) [µM]	GI50 (SW-620 colon) [µM]	GI50 (SK-MEL-28 melanoma) [µM]	TGI (SK-MEL-28 melanoma) [µM]	GI50 (HL-60(TB) leukemia) [µM]	GI50 (SF-539 CNS) [µM]	TGI (SF-539 CNS) [µM]	GI50 (COLO 205 colon) [µM]	GI50 (HT29 colon) [µM]	GI50 (NCI-H226 lung) [µM]	TGI (NCI-H226 lung) [µM]	GI50 (K-562 leukemia) [µM]	TGI (K-562 leukemia) [µM]	TGI (SW-620 colon) [µM]	TGI (HL-60(TB) leukemia) [µM]	TGI (COLO 205 colon) [µM]	TGI (HT29 colon) [µM]	TGI (NCI/ADR-RES ovarian) [µM]	GI50 (NCI/ADR-RES ovarian) [µM]
Nc1cc2cccc[n+]2c2cc(Cl)ccc12	16.8	37.7	26.2	14.9	37.3	16.3	14.6	83.2	11.8	37.4	13.5	59.5	3.01	22	–	–	–	–	–	–
NC(=S)N/N=C(/CC(=O)c1ccccc1)C(=O)Nc1ccc(Cl)c(Cl)c1	–	> 100	–	–	> 100	–	–	> 100	–	–	–	> 100	–	> 100	> 100	> 100	> 100	> 100	–	–
COc1ccccc1NC(=O)C1=C(C)NC(C)=C(C(=O)Nc2ccccc2OC)C1c1ccccc1F	–	> 100	–	–	> 100	–	–	> 100	–	–	–	> 100	–	> 100	> 100	> 100	> 100	> 100	–	–
COC(=O)CCC(NC(=S)N/N=C(\C)c1nccs1)C(=O)OC (centres undefined)	–	> 100	–	–	> 100	–	–	> 100	–	–	–	> 100	–	> 100	> 100	47.5	34.1	> 100	–	–
CCCc1[nH]nc(CCC(=O)N(Cc2ccccc2)Cc2ccccc2)c1CC	–	> 100	–	–	> 100	–	–	> 100	–	–	–	> 100	–	> 100	> 100	–	> 100	> 100	–	–
CC(C)C(=O)Nc1nc2nc[nH]c2c(=O)[nH]1	–	> 100	–	–	> 100	–	–	> 100	–	–	–	> 100	–	> 100	> 100	> 100	> 100	> 100	–	–
COc1cc(C2c3cc4c(cc3OC(N3CCCC3)C2C)OCO4)cc(OC)c1OC (centres undefined)	–	4.32	–	–	> 100	–	–	0.732	–	–	–	3.19	–	> 19.1	> 33.9	–	1.03	1.22	0.531	–
O=C([O-])c1ccccc1Nc1ccccn1.O=C([O-])c1ccccc1Nc1ccccn1.[Ni+2]	> 100	> 100	> 100	58.9	> 100	–	72.4	> 100	> 100	> 100	33.9	> 100	49.5	> 100	> 100	–	> 100	> 100	–	–
CNS(=O)(=O)NN(C)S(=O)(=O)c1ccc(F)cc1	–	> 100	–	–	> 100	–	–	> 100	–	–	–	> 100	–	> 100	> 100	> 100	> 100	> 100	–	–
CCCCCCCCCc1cc(=O)c2ccc(OCc3ccccc3)cc2o1	–	> 100	–	–	> 100	–	–	> 100	–	–	–	> 100	–	> 100	> 100	46.4	> 100	> 100	–	–
COCCN1C2=CCCCC2=Nc2c1nc(N)[nH]c2=O	–	> 100	–	–	> 100	–	–	> 100	–	–	–	> 100	–	> 100	–	> 100	> 100	> 100	–	–
Cc1ccncc1.[O]=[Ge].[O]=[Ge].[O]=[Ge].[O]=[Ge].[O]=[Ge].[O]=[Ge][OH].[O]=[Ge][OH]	> 100	> 100	> 100	> 100	> 100	> 100	> 100	> 100	–	> 100	> 100	> 100	> 100	> 100	> 100	> 100	–	> 100	–	–
CC(C)(C)C#CC1=C(Br)C(=O)OC1	1.59	3.12	–	1.12	67	–	2.74	11.1	31.6	0.116	23	68.1	0.841	–	> 24.9	–	> 100	> 100	2.8	0.426
O=C(O)c1ccc([Se][Se]c2ccc(C(=O)O)cc2)cc1	–	> 100	–	–	55.6	–	–	92.1	–	–	–	76.5	–	–	> 100	–	74	–	–	–
O=Cc1cn(C(=O)c2ccccc2)c2ccccc12	–	> 100	–	–	> 100	–	–	> 100	–	–	–	> 100	–	> 100	> 100	92.6	–	> 100	–	–
C=CCC1([C@H](C)[C@@H](OC(C)=O)c2cc(OC)c(OC)c(OC)c2)C[C@@H](OC)CCC1=O (some centres undefined)	–	–	–	–	52.4	–	–	30.8	–	–	–	44.2	–	> 100	38.6	45	42.2	38	–	–
CC1CCCCc2nc3c(c(=O)n21)CCCC3 (centres undefined)	–	> 100	–	–	> 100	–	–	> 100	–	–	–	> 100	–	> 100	> 100	–	> 100	> 100	–	–
CC(C)(C)OC(=O)C#CC[C@H]1CCCC1/C=C/C(O)=C1/C(=O)NC(CCCNC(=O)OC(C)(C)C)C1=O (some centres undefined)	–	> 100	–	–	36.1	–	–	83.1	–	–	–	> 100	–	89.3	> 100	73.7	33.6	> 100	–	–
C=CCc1c2c(c(OC)c3ccoc13)C(=O)/C(=C/c1ccccc1OC)O2	2.85	7.85	4.24	5.21	> 100	–	5.45	72.8	7.64	3.98	3.22	20.5	3.51	> 100	> 100	–	69.5	> 100	10.8	2.82
CN(C)/C=C/c1nnc([N+](=O)[O-])s1	–	33.2	–	–	–	–	–	23.4	–	–	–	41.9	–	–	33.1	–	10.3	14.6	37.7	–
CCOC(=O)C1=C(C)N(Cc2ccccc2)C(C)=C(C(=O)OCC)C1c1ccccc1O	–	> 100	–	–	> 100	–	–	88.8	–	–	–	80.4	–	> 100	> 100	58.6	31.4	> 100	–	–
